Data set [1] is described as follows: Chromatographic hydrophobicity index, log D of the compound at pH 10.5. Format: physicochemical. The note with it: buffer.
The subject of data set [2] is Rattus norvegicus. Description: Reduction of lymphocyte count in rat at 3 mg/kg, po measured at 24 hrs relative to control. Format: functional.
Data set [3] concerns Rattus norvegicus. Briefly: Reduction of lymphocyte count in rat at 3 mg/kg, po measured at 12 hrs relative to control. The data set is classed as functional.
The nature of data set [4]: Chromatographic hydrophobicity index, log D of the compound at pH 7.4. Format: physicochemical. The note with it: buffer.
In data set [5] the test system is Rattus norvegicus. Description: Reduction of lymphocyte count in rat at 3 mg/kg, po measured at 8 hrs relative to control. The data set is classed as functional.
Data set [6] concerns the target Sphingosine 1-phosphate receptor 3 (Homo sapiens, UniProt Q99500). Description: Agonist activity at human S1P3R expressed in RBL membranes assessed as [35S]GTPgammaS binding after 30 mins. The data set is classed as functional, cell membranes. Background: GTPγS resists hydrolysis and so accumulates on activated G proteins.
In data set [7] the test system is Rattus norvegicus. Briefly: Reduction of lymphocyte count in rat at 3 mg/kg, po measured at 4 hrs relative to control. Format: functional.
Data set [8] concerns the target Sphingosine 1-phosphate receptor 1 (Homo sapiens, UniProt P21453). Briefly: Agonist activity at human S1P1R expressed in RH7777 membranes assessed as [35S]GTPgammaS binding after 30 mins. The data set is classed as functional, cell membranes.
A short description of data set [9]: Chromatographic hydrophobicity index, log D of the compound at pH 2. Format: physicochemical. The note with it: buffer.
Data set [10] in a line: Half life in CD rat at 1 mg/kg, iv or 3 mg/kg, po using DMSO/10%(w/v) Kleptose, 0.9% saline(aq) (2%/98%). The data set is classed as ADME, organism-based. The note with it: in vivo.
Data set [11] can be described thus: Volume of distribution at steady state in CD rat at 1 mg/kg, iv or 3 mg/kg, po using DMSO/10%(w/v) Kleptose, 0.9% saline(aq) (2%/98%). The data set is classed as ADME, organism-based. The note with it: in vivo, read-out: Vdss.
Data set [12] can be described thus: Oral bioavailability in CD rat at 3 mg/kg using Methylcellulose(aq), 1% (w/v) suspension. The data set is classed as ADME, organism-based. The note with it: CD, in vivo.
Data set [13] can be described thus: Clearance in CD rat at 1 mg/kg, iv or 3 mg/kg, po using DMSO/10%(w/v) Kleptose, 0.9% saline(aq) (2%/98%). The data set is classed as ADME, organism-based. The note with it: in vivo.
For a further data set, the target named is Albumin (Homo sapiens, UniProt P02768). Description: Fraction unbound as a percentage in human serum albumin. The data set is classed as ADME.
Chain of Albumin (P02768 whole entry): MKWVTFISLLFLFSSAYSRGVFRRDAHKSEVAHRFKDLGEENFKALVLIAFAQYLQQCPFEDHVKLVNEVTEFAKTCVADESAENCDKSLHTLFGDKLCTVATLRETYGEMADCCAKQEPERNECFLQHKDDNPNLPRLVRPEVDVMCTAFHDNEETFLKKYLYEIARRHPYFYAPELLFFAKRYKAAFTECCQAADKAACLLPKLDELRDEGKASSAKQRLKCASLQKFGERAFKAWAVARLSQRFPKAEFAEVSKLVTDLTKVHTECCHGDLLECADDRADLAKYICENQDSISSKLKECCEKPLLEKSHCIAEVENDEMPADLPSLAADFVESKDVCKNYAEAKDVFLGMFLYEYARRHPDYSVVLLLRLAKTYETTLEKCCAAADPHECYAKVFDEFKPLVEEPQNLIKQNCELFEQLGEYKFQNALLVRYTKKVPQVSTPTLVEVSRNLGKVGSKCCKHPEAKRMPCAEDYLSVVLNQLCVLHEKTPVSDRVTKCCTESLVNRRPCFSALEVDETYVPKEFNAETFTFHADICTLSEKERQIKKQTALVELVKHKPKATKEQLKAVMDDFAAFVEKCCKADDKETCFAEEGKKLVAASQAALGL

Each structure is given as a SMILES string. Some results are limits rather than exact numbers.

Chain of Sphingosine 1-phosphate receptor 1 (P21453 whole entry): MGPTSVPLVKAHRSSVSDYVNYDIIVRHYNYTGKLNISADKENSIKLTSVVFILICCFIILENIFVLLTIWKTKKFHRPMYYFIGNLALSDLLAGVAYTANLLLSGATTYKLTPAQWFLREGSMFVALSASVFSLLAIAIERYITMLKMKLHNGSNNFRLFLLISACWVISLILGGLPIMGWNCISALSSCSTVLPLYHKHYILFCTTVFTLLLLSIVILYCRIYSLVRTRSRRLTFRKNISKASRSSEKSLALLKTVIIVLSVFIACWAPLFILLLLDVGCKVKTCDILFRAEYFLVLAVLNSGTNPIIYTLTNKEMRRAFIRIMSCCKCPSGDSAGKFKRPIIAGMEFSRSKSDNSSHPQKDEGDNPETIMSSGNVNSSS
Chain of Sphingosine 1-phosphate receptor 3 (Q99500 whole entry): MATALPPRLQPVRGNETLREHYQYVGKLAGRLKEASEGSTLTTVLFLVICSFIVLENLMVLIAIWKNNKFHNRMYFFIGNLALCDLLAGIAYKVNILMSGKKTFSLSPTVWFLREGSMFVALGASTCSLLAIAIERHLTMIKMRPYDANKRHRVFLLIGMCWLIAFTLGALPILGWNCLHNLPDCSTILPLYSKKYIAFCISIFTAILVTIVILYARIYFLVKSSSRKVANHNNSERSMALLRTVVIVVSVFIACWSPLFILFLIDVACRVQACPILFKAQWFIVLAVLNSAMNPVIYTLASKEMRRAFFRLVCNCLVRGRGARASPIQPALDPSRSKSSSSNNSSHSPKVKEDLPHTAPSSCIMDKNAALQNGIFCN

The term chromatographic logD denotes a lipophilicity value derived from retention on a column. A word on the EC50: it is the concentration giving half of the maximal effect. Turning to `CC(C)Oc1ccc(-c2nc(-c3cccc4c3CCNC4CC(=O)O)no2)cc1C#N` (stereo unspecified), the chromatographic logD in data set [1] was found to be 1.27; in data set [4] it was 1.58; in data set [9], 1.17. The Activity in the data set with Rattus norvegicus [2] was determined as 132; in the data set on Rattus norvegicus [3], 108; with Rattus norvegicus [5], 69; with Rattus norvegicus [7] it was 46. For the same molecule, the EC50 in [6] is 12600 nM; in [8] it was 5.01 nM.
As for `CC(C)Oc1ccc(-c2nc(-c3cccc4c3OCCNC4CCC(=O)O)no2)cc1Cl` (stereo unspecified), the figures for the EC50 in data set [6] and in data set [8] were over 31600 nM and 5.01 nM, respectively.
Take `CC(C)Oc1ccc(-c2nc(-c3ccc4c(c3)CCN(CC(=O)O)CC4)no2)cc1C#N`: the results for the EC50 in [6] and in [8] were 2000 nM and 3.98 nM, respectively.
For `CC(C)Oc1ccc(-c2nc(-c3ccc4c(c3)CNCCO4)no2)cc1C#N` the same measures were 6310 nM and 25.1 nM.
Consider `CC(C)Oc1ccc(-c2nc(-c3ccc4c(c3)CN(CCC(=O)O)CCO4)no2)cc1C#N`, for which the EC50 is over 31600 nM in data set [6] and 50.1 nM in [8].
For `CC(C)Oc1ccc(-c2nc(-c3ccc4c(c3)CNC(CCC(=O)O)CO4)no2)cc1Cl` (stereo unspecified) the same measures were 251 nM and 2.51 nM.
In the case of `CC(C)Oc1ccc(-c2nc(-c3ccc4c(c3)CCN(CCC(=O)O)CC4)no2)cc1Cl`, the EC50 in data set [6] is 10000 nM; in data set [8] it was 7.94 nM.
Consider `CC(C)Oc1ccc(-c2nc(-c3cccc4c3CN(CCC(=O)O)C4)no2)cc1Cl`, for which the EC50 in data set [6] is 7940 nM; in data set [8] it was 316 nM.
As for `CC(C)Oc1ccc(-c2nc(-c3ccc4c(c3)CNCCO4)no2)cc1Cl`, the EC50 is 15800 nM in [6] and 126 nM in data set [8].
A word on the half-life: it is the time in which the quantity being followed falls by half. Usually bioavailability stands for dose-corrected exposure relative to a reference, in per cent. `CC(C)Oc1ccc(-c2nc(-c3cccc4c3CCNC4CC(=O)O)no2)cc1Cl` (stereo unspecified) gave a half-life in data set [10] of 6.7 h. Further, the Vd in data set [11] is 2.7 L/kg. Further, the chromatographic logD in data set [1] turned out to be 1.73; in data set [4], 2.02; in [9], 1.47. This molecule showed a bioavailability in data set [12] of 10%. Moreover, the Activity in the data set on Rattus norvegicus [2] was determined as 99; with Rattus norvegicus [3], 58; with Rattus norvegicus [5], 12; in the data set with Rattus norvegicus [7] it was 24. In data set [13], this molecule yielded a clearance of 5 mL/min/kg. The concentration giving a half-maximal response (EC50) in data set [6] is 5010 nM; in data set [8], 20 nM.
As to `CC(C)Oc1ccc(-c2nc(-c3ccc4c(c3)OCCNC4)no2)cc1Cl`, the EC50 was over 31600 nM in data set [6] and 316 nM in data set [8].
On the same counts, the results for `CC(C)Oc1ccc(-c2nc(-c3cccc4c3CCCNC4)no2)cc1Cl` are over 31600 nM and 631 nM.
For `CC(C)Oc1ccc(-c2nc(-c3cccc4c3CN(CCCC(=O)O)C4)no2)cc1C#N`, the EC50 is over 31600 nM in [6] and 398 nM in data set [8].
On the same counts, the results for `CC(C)Oc1ccc(-c2nc(-c3cccc4c3OCCNC4CCCC(=O)O)no2)cc1Cl` (stereo unspecified) are 25100 nM and 10 nM.
With `CC(C)Oc1ccc(-c2nc(-c3cccc4c3CCNCC4)no2)cc1C#N`, the results for the EC50 in data set [6] and in data set [8] were 7940 nM and 2 nM, respectively.
For `CC(C)Oc1ccc(-c2nc(-c3cccc4c3CCN(CC(=O)O)CC4)no2)cc1Cl` the same measures were over 31600 nM and 2510 nM.
Consider `CC(C)Oc1ccc(-c2nc(-c3ccc4c(c3)CCNC4)no2)cc1C#N`, for which the values for the EC50 in data set [6] and in [8] were 31600 nM and 3.98 nM, respectively.
In general, fraction unbound refers to the share of the substance not bound to proteins or other matrix. Lower therefore signals extensive binding. For `O=C(O)c1cnn(Cc2ccc(-c3noc(-c4cc(-c5ccccc5)c(C(F)(F)F)s4)n3)cc2)c1`, the EC50 in data set [6] was 1580 nM; in data set [8], 251 nM. Besides, the fraction unbound on Albumin is 0.01.
Regarding `CC(C)Oc1ccc(-c2nc(-c3cccc4c3CCNC4)no2)cc1Cl`, the figures for the EC50 in [6] and in [8] were 15800 nM and 39.8 nM, respectively.
For the molecule `CC(C)Oc1ccc(-c2nc(-c3ccc4c(c3)OCCNC4)no2)cc1C#N`, the results for the EC50 in [6] and in data set [8] were over 31600 nM and 79.4 nM, respectively.
With `CC(C)Oc1ccc(-c2nc(-c3ccc4c(c3)CCCNC4)no2)cc1Cl`, the EC50 in data set [6] is over 31600 nM; in data set [8] it was 398 nM.
As to `CC(C)Oc1ccc(-c2nc(-c3cccc4c3CCN(CCC(=O)O)CC4)no2)cc1Cl`, the results for the 50% effective concentration (EC50) in [6] and in data set [8] were over 31600 nM and 158 nM, respectively.
Regarding `CC(C)Oc1ccc(-c2nc(-c3ccc4c(c3)CNC(C(=O)O)CO4)no2)cc1Cl` (stereo unspecified), the EC50 was 794 nM in data set [6] and 5.01 nM in data set [8].
On the same counts, the results for `CC(C)Oc1ccc(-c2nc(-c3cccc4c3CNC4)no2)cc1Cl` are over 31600 nM and 7.94 nM.
Turning to `CC(C)Oc1ccc(-c2nc(-c3cccc4c3OCCNC4)no2)cc1Cl`, the EC50 in data set [6] was over 31600 nM; in data set [8] it was 79.4 nM.
On the same counts, the results for `CC(C)Oc1ccc(-c2nc(-c3cccc4c3CCNCC4)no2)cc1Cl` are over 31600 nM and 15.8 nM.
In the case of `CC(C)Oc1ccc(-c2nc(-c3ccc4c(c3)CCCNC4)no2)cc1C#N`, the figures for the concentration for a half-maximal effect (EC50) in [6] and in data set [8] were over 31600 nM and 126 nM, respectively.
On the same counts, the results for `CC(C)Oc1ccc(-c2nc(-c3ccc4c(c3)CCN(CCC(=O)O)C4)no2)cc1C#N` are 3980 nM and 6.31 nM.
For `CC(C)Oc1ccc(-c2nc(-c3cccc4c3CN(CCCC(=O)O)C4)no2)cc1Cl` the same measures were 2000 nM and 501 nM.
In the case of `CC(C)Oc1ccc(-c2nc(-c3cccc4c3CCN(CC(=O)O)C4)no2)cc1C#N`, the figures for the EC50 in data set [6] and in [8] were over 31600 nM and 7.94 nM, respectively.
With `CC(C)Oc1ccc(-c2nc(-c3ccc4c(cnn4CCC(=O)O)c3)no2)cc1Cl`, the EC50 in data set [6] is over 31600 nM; in data set [8] it was 31.6 nM. At Albumin, this molecule came in with a fraction unbound of 0.013.
For `CC(C)Oc1ccc(-c2nc(-c3ccc4c(c3)CN(CCC(=O)O)CCO4)no2)cc1Cl`, the EC50 in data set [6] is 2000 nM; in [8] it was 126 nM.
For `CC(C)Oc1ccc(-c2nc(-c3ccc4c(c3)CN(CCCC(=O)O)CCO4)no2)cc1C#N` the same measures were 25100 nM and 63.1 nM.

The values above are taken from ChEMBL document CHEMBL3352346, “Optimization of sphingosine-1-phosphate-1 receptor agonists: effects of acidic, basic, and zwitterionic chemotypes on pharmacokinetic and pharmacodynamic profiles” (J Med Chem, 2014).
